#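 How tested: cells in 96-well plates exposed to compound for 48 hours at five concentrations. TGI denotes the concentration required for complete inhibition of growth.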
# Key:
# Experiment in all cases: NCI-60 cell line screen, 48 h
# [1] = tested on: 786-0 renal
# [2] = tested on: A498 renal
# [3] = tested on: A549 NSCLC
# [4] = tested on: ACHN renal
# [5] = tested on: BT-549 breast
# [6] = tested on: CAKI-1 renal
# [7] = tested on: CCRF-CEM leukemia
# [8] = tested on: COLO 205 colon
# [9] = tested on: DU-145 prostate
# [10] = tested on: EKVX NSCLC
# [11] = tested on: HCC-2998 colon
# [12] = tested on: HCT-116 colon
# [13] = tested on: HCT-15 colon
# [14] = tested on: HL-60(TB) leukemia
# [15] = tested on: HOP-62 NSCLC
# [16] = tested on: HOP-92 NSCLC
# [17] = tested on: HS 578T breast
# [18] = tested on: HT29 colon
# [19] = tested on: IGROV1 ovarian
# [20] = tested on: K-562 leukemia
# [21] = tested on: KM12 colon
# [22] = tested on: LOX IMVI melanoma
# [23] = tested on: M14 melanoma
# [24] = tested on: MALME-3M melanoma
# [25] = tested on: MCF7 breast
# [26] = tested on: MDA-MB-231 breast
# [27] = tested on: MDA-MB-435
# [28] = tested on: MDA-N
# [29] = tested on: MOLT-4 leukemia
# [30] = tested on: NCI-H226 lung
# [31] = tested on: NCI-H23 lung
# [32] = tested on: NCI-H460 lung
# [33] = tested on: NCI-H522 lung
# [34] = tested on: NCI/ADR-RES ovarian
# [35] = tested on: OVCAR-3 ovarian
# [36] = tested on: OVCAR-4 ovarian
# [37] = tested on: OVCAR-5 ovarian
# [38] = tested on: OVCAR-8 ovarian
# [39] = tested on: PC-3 prostate
# [40] = tested on: RPMI-8226 leukemia
# [41] = tested on: SF-268 CNS
# [42] = tested on: SF-295 CNS
# [43] = tested on: SF-539 CNS
# [44] = tested on: SK-MEL-2 melanoma
# [45] = tested on: SK-MEL-28 melanoma
# [46] = tested on: SK-MEL-5 melanoma
# [47] = tested on: SK-OV-3 ovarian
# [48] = tested on: SN12C renal
# [49] = tested on: SNB-19 CNS
# [50] = tested on: SR leukemia
# [51] = tested on: SW-620 colon
# [52] = tested on: T-47D breast
# [53] = tested on: TK-10 renal
# [54] = tested on: U251 CNS
# [55] = tested on: UACC-257 melanoma
# [56] = tested on: UACC-62 melanoma
# [57] = tested on: UO-31 renal
smiles,measurement,setting,value
C=C1CC(Cn2ccc(=O)[nH]c2=O)(c2ccc(OC)cc2)OC1=O (configuration not stated),TGI,[1],25.2 µM
same,TGI,[2],31.6 µM
same,TGI,[3],59.2 µM
same,TGI,[4],33 µM
same,TGI,[5],24.6 µM
same,TGI,[6],19.6 µM
same,TGI,[7],10.4 µM
same,TGI,[8],14.5 µM
same,TGI,[9],31.3 µM
same,TGI,[10],41.5 µM
same,TGI,[11],17.5 µM
same,TGI,[12],20 µM
same,TGI,[13],31.5 µM
same,TGI,[14],7.45 µM
same,TGI,[15],> 100 µM
same,TGI,[16],4.58 µM
same,TGI,[17],56.9 µM
same,TGI,[18],31.2 µM
same,TGI,[19],31.6 µM
same,TGI,[20],16 µM
same,TGI,[21],35.5 µM
same,TGI,[22],27.8 µM
same,TGI,[23],21.2 µM
same,TGI,[24],27 µM
same,TGI,[25],16 µM
same,TGI,[26],33.2 µM
same,TGI,[27],30.8 µM
same,TGI,[28],28 µM
same,TGI,[29],8.25 µM
same,TGI,[30],39.3 µM
same,TGI,[31],29.2 µM
same,TGI,[32],> 67.6 µM
same,TGI,[33],4.4 µM
same,TGI,[34],38.9 µM
same,TGI,[35],36.1 µM
same,TGI,[36],35.1 µM
same,TGI,[37],32.2 µM
same,TGI,[38],46.8 µM
same,TGI,[39],30.6 µM
same,TGI,[40],12 µM
same,TGI,[41],51.1 µM
same,TGI,[42],> 100 µM
same,TGI,[43],41.2 µM
same,TGI,[44],27.1 µM
same,TGI,[45],33 µM
same,TGI,[46],26.8 µM
same,TGI,[47],> 92.9 µM
same,TGI,[48],19 µM
same,TGI,[49],> 100 µM
same,TGI,[50],10.5 µM
same,TGI,[51],16.1 µM
same,TGI,[52],39.8 µM
same,TGI,[53],25.2 µM
same,TGI,[54],53.4 µM
same,TGI,[55],35.3 µM
same,TGI,[56],27.9 µM
same,TGI,[57],31.7 µM

# Reference: PubChem BioAssay (NCI)
